Common to all, as to test: relative viability (nuclei count vs DMSO), 5 days (fraction); higher = more cells survive
Compound in the assay “DM3189 + Phenformin”: C1CN(CCN1)C2=CC=C(C=C2)C3=CN4C(=C(C=N4)C5=CC=NC6=CC=CC=C56)N=C3 [DM3189] + N=C(N)NC(=N)NCCc1ccccc1 [Phenformin] (partner 250 µM)
In outline: (§1)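 Relative viability divides the nuclei count in treated wells by that in vehicle wells. Lung cancer cell lines were seeded in 1536-well plates, dosed by pin tool the next day, and fixed and stained after 5 days in one step with final 0.05% Triton X-100, 1% formaldehyde and 1 ug/ml Hoechst. Dosing was a single drug or a fixed anchor-drug dose plus five library-drug doses (not always all listed) in √10 steps, and values are medians of duplicate plates imaged at 4×.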

Compound in the assay “DM3189 + Pictilisib”: C1CN(CCN1)C2=CC=C(C=C2)C3=CN4C(=C(C=N4)C5=CC=NC6=CC=CC=C56)N=C3 [DM3189] + CS(=O)(=O)N1CCN(Cc2cc3nc(-c4cccc5[nH]ncc45)nc(N4CCOCC4)c3s2)CC1 [Pictilisib] (partner 1 µM)
The procedure, abridged: as §1

Compound in the assay “DM3189 + Luminespib”: C1CN(CCN1)C2=CC=C(C=C2)C3=CN4C(=C(C=N4)C5=CC=NC6=CC=CC=C56)N=C3 [DM3189] + CCNC(=O)c1noc(-c2cc(C(C)C)c(O)cc2O)c1-c1ccc(CN2CCOCC2)cc1 [Luminespib] (partner 0.01 µM)
In outline: as §1

Compound in the assay “DM3189 + Crizotinib”: C1CN(CCN1)C2=CC=C(C=C2)C3=CN4C(=C(C=N4)C5=CC=NC6=CC=CC=C56)N=C3 [DM3189] + C[C@@H](Oc1cc(-c2cnn(C3CCNCC3)c2)cnc1N)c1c(Cl)ccc(F)c1Cl [Crizotinib] (partner 1 µM)
The procedure, abridged:
as §1

Compound in the assay “DM3189 + Linsitinib”: C1CN(CCN1)C2=CC=C(C=C2)C3=CN4C(=C(C=N4)C5=CC=NC6=CC=CC=C56)N=C3 [DM3189] + C[C@]1(O)C[C@@H](c2nc(-c3ccc4ccc(-c5ccccc5)nc4c3)c3c(N)nccn32)C1 [Linsitinib] (partner 1 µM)
The procedure, abridged:
as §1

As to LCLC-97TM1, the relative viability is 0.459 with DM3189 + Phenformin (first compound 0.08 µM); 0.364 with DM3189 + Phenformin (first compound 0.253 µM); 0.433 with DM3189 + Phenformin (first compound 0.8 µM); 0.399 with DM3189 + Phenformin (first compound 2.53 µM); 0.186 with DM3189 + Pictilisib (first compound 0.08 µM); 0.151 with DM3189 + Pictilisib (first compound 0.253 µM). In addition, the relative viability in the assay with DM3189 + Pictilisib (first compound 0.8 µM) stood at 0.159; with DM3189 + Pictilisib (first compound 2.53 µM), 0.13; in the assay with DM3189 + Luminespib (first compound 0.08 µM), 0.71; with DM3189 + Luminespib (first compound 0.253 µM), 0.574; with DM3189 + Luminespib (first compound 0.8 µM) it was 0.699; with DM3189 + Luminespib (first compound 2.53 µM), 0.606. Further, the relative viability with DM3189 + Crizotinib (first compound 0.08 µM) is 0.304; in the assay with DM3189 + Crizotinib (first compound 0.253 µM), 0.249; with DM3189 + Crizotinib (first compound 0.8 µM) it was 0.297; in the assay with DM3189 + Crizotinib (first compound 2.53 µM), 0.313; with DM3189 + Linsitinib (first compound 0.08 µM), 0.162; with DM3189 + Linsitinib (first compound 0.253 µM), 0.188. Also, the values for the relative viability with DM3189 + Linsitinib (first compound 0.8 µM) and in the assay with DM3189 + Linsitinib (first compound 2.53 µM) were 0.145 and 0.181, respectively.

As to NCI-H2228, the relative viability in the assay with DM3189 + Phenformin (first compound 0.08 µM) is 0.368; with DM3189 + Phenformin (first compound 0.253 µM), 0.344; with DM3189 + Phenformin (first compound 0.8 µM), 0.29; in the assay with DM3189 + Phenformin (first compound 2.53 µM) it was 0.189; with DM3189 + Pictilisib (first compound 0.08 µM), 0.362; with DM3189 + Pictilisib (first compound 0.253 µM), 0.33. Also, the relative viability in the assay with DM3189 + Pictilisib (first compound 0.8 µM) turned out to be 0.329; with DM3189 + Pictilisib (first compound 2.53 µM) it was 0.283; with DM3189 + Luminespib (first compound 0.08 µM) it was 0.112; with DM3189 + Luminespib (first compound 0.253 µM), 0.132; with DM3189 + Luminespib (first compound 0.8 µM), 0.144; in the assay with DM3189 + Luminespib (first compound 2.53 µM), 0.167. The relative viability was determined as 0.695 with DM3189 + Crizotinib (first compound 0.08 µM); 0.363 with DM3189 + Crizotinib (first compound 0.253 µM); 0.385 with DM3189 + Crizotinib (first compound 0.8 µM); 0.14 with DM3189 + Crizotinib (first compound 2.53 µM); 0.68 in the assay with DM3189 + Linsitinib (first compound 0.08 µM); 0.763 in the assay with DM3189 + Linsitinib (first compound 0.253 µM). Further, the relative viability with DM3189 + Linsitinib (first compound 0.8 µM) came out at 0.572; with DM3189 + Linsitinib (first compound 2.53 µM), 0.66.

In the case of 201T, the relative viability with DM3189 + Phenformin (first compound 0.08 µM) worked out at 0.482; with DM3189 + Phenformin (first compound 0.253 µM), 0.429; with DM3189 + Phenformin (first compound 0.8 µM), 0.388; with DM3189 + Phenformin (first compound 2.53 µM), 0.431; with DM3189 + Pictilisib (first compound 0.08 µM), 0.766; in the assay with DM3189 + Pictilisib (first compound 0.253 µM), 0.73. The relative viability in the assay with DM3189 + Pictilisib (first compound 0.8 µM) came out at 0.515; with DM3189 + Pictilisib (first compound 2.53 µM) it was 0.702; in the assay with DM3189 + Luminespib (first compound 0.08 µM), 1.16; with DM3189 + Luminespib (first compound 0.253 µM), 1.01; in the assay with DM3189 + Luminespib (first compound 0.8 µM), 1.14; with DM3189 + Luminespib (first compound 2.53 µM), 0.941. Further, the relative viability with DM3189 + Crizotinib (first compound 0.08 µM) is 1.06; with DM3189 + Crizotinib (first compound 0.253 µM) it was 1.03; with DM3189 + Crizotinib (first compound 0.8 µM) it was 1; with DM3189 + Crizotinib (first compound 2.53 µM), 1.07; with DM3189 + Linsitinib (first compound 0.08 µM), 1.07; in the assay with DM3189 + Linsitinib (first compound 0.253 µM), 1.03. In addition, the relative viability came out at 1.01 with DM3189 + Linsitinib (first compound 0.8 µM) and 1.08 with DM3189 + Linsitinib (first compound 2.53 µM).

Consider NCI-H1915, for which the relative viability came to 0.392 in the assay with DM3189 + Phenformin (first compound 0.08 µM); 0.361 with DM3189 + Phenformin (first compound 0.253 µM); 0.355 with DM3189 + Phenformin (first compound 0.8 µM); 0.301 with DM3189 + Phenformin (first compound 2.53 µM); 0.974 with DM3189 + Pictilisib (first compound 0.08 µM); 0.915 in the assay with DM3189 + Pictilisib (first compound 0.253 µM). Further, the relative viability in the assay with DM3189 + Pictilisib (first compound 0.8 µM) came out at 0.646; with DM3189 + Pictilisib (first compound 2.53 µM), 0.891; with DM3189 + Luminespib (first compound 0.08 µM), 0.697; with DM3189 + Luminespib (first compound 0.253 µM), 0.817; with DM3189 + Luminespib (first compound 0.8 µM), 0.606; with DM3189 + Luminespib (first compound 2.53 µM) it was 0.485. In addition, the relative viability with DM3189 + Crizotinib (first compound 0.08 µM) was determined as 0.879; in the assay with DM3189 + Crizotinib (first compound 0.253 µM), 0.79; with DM3189 + Crizotinib (first compound 0.8 µM) it was 0.808; with DM3189 + Crizotinib (first compound 2.53 µM), 0.783; with DM3189 + Linsitinib (first compound 0.08 µM), 1.12; with DM3189 + Linsitinib (first compound 0.253 µM), 1.05. Besides, the relative viability with DM3189 + Linsitinib (first compound 0.8 µM) was found to be 0.928; with DM3189 + Linsitinib (first compound 2.53 µM) it was 1.11.

With BEN, the relative viability with DM3189 + Phenformin (first compound 0.08 µM) worked out at 0.237; with DM3189 + Phenformin (first compound 0.253 µM) it was 0.312; with DM3189 + Phenformin (first compound 0.8 µM), 0.268; with DM3189 + Phenformin (first compound 2.53 µM), 0.287; with DM3189 + Pictilisib (first compound 0.08 µM), 0.553; in the assay with DM3189 + Pictilisib (first compound 0.253 µM), 0.601. Also, the relative viability in the assay with DM3189 + Pictilisib (first compound 0.8 µM) was determined as 0.617; with DM3189 + Pictilisib (first compound 2.53 µM) it was 0.581; with DM3189 + Luminespib (first compound 0.08 µM), 0.387; with DM3189 + Luminespib (first compound 0.253 µM), 0.555; in the assay with DM3189 + Luminespib (first compound 0.8 µM) it was 0.516; with DM3189 + Luminespib (first compound 2.53 µM) it was 0.382. For the same cell line, the relative viability stood at 0.881 in the assay with DM3189 + Crizotinib (first compound 0.08 µM); 0.865 in the assay with DM3189 + Crizotinib (first compound 0.253 µM); 0.944 with DM3189 + Crizotinib (first compound 0.8 µM); 0.987 in the assay with DM3189 + Crizotinib (first compound 2.53 µM); 0.935 in the assay with DM3189 + Linsitinib (first compound 0.08 µM); 0.828 with DM3189 + Linsitinib (first compound 0.253 µM). The results for the relative viability with DM3189 + Linsitinib (first compound 0.8 µM) and in the assay with DM3189 + Linsitinib (first compound 2.53 µM) were 0.957 and 0.778, respectively.

Take NCI-H2405: the relative viability with DM3189 + Phenformin (first compound 0.08 µM) was 0.384; with DM3189 + Phenformin (first compound 0.253 µM), 0.351; with DM3189 + Phenformin (first compound 0.8 µM) it was 0.416; with DM3189 + Phenformin (first compound 2.53 µM), 0.411; with DM3189 + Pictilisib (first compound 0.08 µM) it was 0.467; with DM3189 + Pictilisib (first compound 0.253 µM), 0.378. For the same cell line, the relative viability with DM3189 + Pictilisib (first compound 0.8 µM) was found to be 0.422; in the assay with DM3189 + Pictilisib (first compound 2.53 µM) it was 0.408; with DM3189 + Luminespib (first compound 0.08 µM), 0.704; in the assay with DM3189 + Luminespib (first compound 0.253 µM), 0.754; with DM3189 + Luminespib (first compound 0.8 µM), 0.646; with DM3189 + Luminespib (first compound 2.53 µM) it was 0.491. The relative viability in the assay with DM3189 + Crizotinib (first compound 0.08 µM) turned out to be 0.867; with DM3189 + Crizotinib (first compound 0.253 µM) it was 0.855; with DM3189 + Crizotinib (first compound 0.8 µM), 0.775; with DM3189 + Crizotinib (first compound 2.53 µM) it was 0.855; with DM3189 + Linsitinib (first compound 0.08 µM) it was 0.909; with DM3189 + Linsitinib (first compound 0.253 µM) it was 0.922. For the same cell line, the relative viability with DM3189 + Linsitinib (first compound 0.8 µM) amounted to 0.792; in the assay with DM3189 + Linsitinib (first compound 2.53 µM) it was 0.878.

As for H3255, the relative viability with DM3189 + Phenformin (first compound 0.08 µM) came out at 0.305; with DM3189 + Phenformin (first compound 0.253 µM) it was 0.422; with DM3189 + Phenformin (first compound 0.8 µM) it was 0.338; with DM3189 + Phenformin (first compound 2.53 µM), 0.376; in the assay with DM3189 + Pictilisib (first compound 0.08 µM), 0.585; with DM3189 + Pictilisib (first compound 0.253 µM), 0.511. The relative viability was 0.446 with DM3189 + Pictilisib (first compound 0.8 µM); 0.529 in the assay with DM3189 + Pictilisib (first compound 2.53 µM); 1.09 with DM3189 + Luminespib (first compound 0.08 µM); 0.957 with DM3189 + Luminespib (first compound 0.253 µM); 0.799 with DM3189 + Luminespib (first compound 0.8 µM); 0.951 in the assay with DM3189 + Luminespib (first compound 2.53 µM). Besides, the relative viability amounted to 1.09 with DM3189 + Crizotinib (first compound 0.08 µM); 0.818 in the assay with DM3189 + Crizotinib (first compound 0.253 µM); 0.623 with DM3189 + Crizotinib (first compound 0.8 µM); 0.845 with DM3189 + Crizotinib (first compound 2.53 µM); 0.951 with DM3189 + Linsitinib (first compound 0.08 µM); 0.982 with DM3189 + Linsitinib (first compound 0.253 µM). The values for the relative viability in the assay with DM3189 + Linsitinib (first compound 0.8 µM) and in the assay with DM3189 + Linsitinib (first compound 2.53 µM) were 0.846 and 0.994, respectively.

The record behind these values is the supplement of paper PMC10307832.
